How the values were obtained:
Assay type in all cases: cell-based
[1] = system: Staphylococcus aureus (SA); test: Clone growth of captured, MHA-immobilized cells from simulated blood, darkfield digital microscopy; conditions: 6 μg/mL FOX; 3 hours (0, 60, 120, 180 minutes); 35° C.
Experimental: Simulated blood specimens were used. Simulated blood specimens were produced by spiking SA, PA, and non-target bacilli species isolates into 10 mL volumes of blood from two short-fill CPD blood bank bags. A total of 29 simulated blood samples were produced, each having a microorganism concentration of approximately 5 CFU/mL of bacterial target species, confirmed by quantitative culture. Spiked isolates used to produce the simulated blood samples included 14 Staphylococcus aureus (SA), 3 Pseudomonas aeruginosa (PA), and 12 non-target Gram-negative bacilli species. Twenty additional control samples were produced which contained no spikes. Each sample was diluted with 30 mL of modified tryptic soy broth medium to promote growth, followed by a 4-hour incubation at 35° C. Following the 4-hour incubation period, samples were centrifuged briefly. The resulting microorganism cells pellets were resuspended in an electrokinetic concentration buffer to produce 1 mL samples for introduction into the detection system. Microorganism samples comprising 20 μL aliquots were pipetted into 14 microchannel flowcells. A 5-minute low-voltage electrokinetic capture was performed to concentrate the microorganisms on to a detection surface associated with each flowcell. […] Controls included quantitative culturing, disk diffusion tests for isolate resistance phenotype, and 20 blood samples without spikes.

[2] = system: Escherichia coli ATCC 25922 (Ecol); test: Biosensor mixed species diffusion assay (immobilized cells, microscopic detection), growth of sentinel strain; conditions: for Mixed species resistance factor diffusion? / Ecol growth in distal site? / Ecol growth in proximal site?: MEM 4 (4 μg/mL); for Ecol growth in distal site?: distal from Paer; for Ecol growth in proximal site?: proximal to Paer
Experimental: (§1) A mixed species diffusion variation of Hodge test using a biosensor with immobilized cells and microscopic detection was performed using the same bacterial strains. Heavy suspensions of Ecol and Paer were prepared in L-histidine buffer from fresh overnight blood agar plates. Heavy suspensions were diluted in normal saline to produce 0.5 McFarland suspensions, noting the volumes of each suspension required and using the same volumes to produce 10^8 cfu/mL suspensions of each strain in L-histidine. These suspensions were further diluted to create […] and 2×10^5 cfu/mL suspensions for heavy and moderate density working samples. The working samples were then diluted 1:1 in 2 mM L-DOPA for EKC.
(§2) The strains were next introduced to a biosensor for EKC, immobilization, and detection. Paer suspensions were loaded first, placing 5 uL in the exit port side (to maintain the resistant Paer isolate in one half of each channel) of each biosensor flowcell channel to cover one half of the flowcell. Six flowcells were loaded with each concentration. EKC was performed for 5 minutes at 1.5V, and then all flowcells were washed with two aliquots of 160 μL 1 mM L-DOPA (from the entry port). Ecol suspensions were next loaded, introducing 20 μL of cells suspension from the entry port to cover the full flowcell. Six flowcells were loaded with each concentration. EKC was performed for 5 minutes at 1.5V, and all flowcells washed with 160 μL of 1/10 MHB. The manner in which the cells were introduced and captures created a site comprising Ecol cells that were distal from any Paer cells (i.e., on the entry port side of the flowcell), as well as Ecol cells that were proximal to the Paer cells (i.e., on the exit port side of the flowcell).
(§3) Antibiotic media were prepared for immobilization and inhibition testing as follows. […] An immobilization medium source plate was prepared in the detection system and maintained at 45° C. The source plate wells were loaded with 20 μL of the 10× stocks and MHB without antibiotic for growth controls. The sample cassette was placed in the detection system and maintained at 40° C. A 180 uL volume of 0.944% MHA was added to each well of the source plate and mixed, and 100 uL of pre-immobilization immobilizing medium (with an agar concentration of 0.850%) was withdrawn and introduced to a flowcell in accordance with the experimental design. The loaded biosensor was allowed to equilibrate for 5 minutes, and was then removed and cooled for 5 minutes to induce the agar immobilizing agent to change to solid phase. The flowcell ports were then sealed, and growth, imaging, and analysis were performed, with examination of each flowcell for growth of Paer, examination of the distal portion of each flowcell for growth of Ecol in the absence of Paer (distal sensitivity), and examination of the proximal portion of each flowcell for growth of Ecol in the presence of Paer (proximal resistance), indicative of a positive mixed species resistance due to diffusion of metallo-beta-lactamase.
(§4) In order to test for enzyme-mediated cross-species resistance effects, a method for was devised to test a sensitive strain, Escherichia coli ATCC 25922 (Ecol), in the presence of a resistant strain, Pseudomonas aeruginosa IHMA 519749 (Paer) in the immobilized format. The method involved first immobilizing the resistant strain on the surface of a portion of each test flowcell of the cassette (approximately half) and then immobilizing the sensitive (sentinel) strain on the surface of the full flowcell including the area containing the resistant strain. This strategy provides an internal control for treatment effects on the sentinel strain in an area far from the resistant strain along with an area where close-field effects can be observed in the same flowcell. […]

[3] = system: Pseudomonas aeruginosa IHMA 519749 (Paer); test: Biosensor mixed species diffusion assay (immobilized cells, microscopic detection), growth of resistant strain; conditions: for Paer growth?: MEM 4 (4 μg/mL), MHA 0.850% agar, 4 hours
Experimental: as §1, §2, §3, §4

[4] = Flowcell 9, Ecol 10^6/Paer 10^6
[5] = Flowcell 9, Ecol 10^6/Paer 10^6, 4 hours
[6] = Flowcell 10, Ecol 10^6/Paer 10^5
[7] = Flowcell 10, Ecol 10^6/Paer 10^5, 4 hours
[8] = Flowcell 11, Ecol 10^5/Paer 10^6
[9] = Flowcell 11, Ecol 10^5/Paer 10^6, 4 hours
[10] = Flowcell 12, Ecol 10^5/Paer 10^5
[11] = Flowcell 12, Ecol 10^5/Paer 10^5, 4 hours

Structure (SMILES) | SA clone growth in immobilizing medium with antibiotic (darkfield images, FIG. 2B) [1] | Mixed species resistance factor diffusion? [2, 4] | Ecol growth in distal site? [2, 5] | Ecol growth in proximal site? [2, 5] | Mixed species resistance factor diffusion? [2, 6] | Ecol growth in distal site? [2, 7] | Ecol growth in proximal site? [2, 7] | Mixed species resistance factor diffusion? [2, 8] | Ecol growth in distal site? [2, 9] | Ecol growth in proximal site? [2, 9] | Mixed species resistance factor diffusion? [2, 10] | Ecol growth in distal site? [2, 11] | Ecol growth in proximal site? [2, 11] | Ecol growth and morphology under antibiotic (time-lapse images) ([2]; MEM at 4 μg/mL, immobilized in MHA, 4 hours) | Paer growth? [3, 4] | Paer growth? [3, 6] | Paer growth? [3, 8] | Paer growth? [3, 10] | Paer growth morphology and rate under antibiotic vs growth control ([3]; MEM at 4 μg/mL, immobilized in MHA, proximal site)
CO[C@@]1(NC(=O)Cc2cccs2)C(=O)N2C(C(=O)O)=C(COC(N)=O)CS[C@@H]21 [FOX, cefoxitin] | growth indicating a methicillin-resistant phenotype | – | – | – | – | – | – | – | – | – | – | – | – | – | – | – | – | – | –
C[C@@H](O)[C@H]1C(=O)N2C(C(=O)O)=C(S[C@@H]3CN[C@H](C(=O)N(C)C)C3)[C@H](C)[C@H]12 [MEM, meropenem] | – | No | No | No | No | No | No | No | No | No | No | No | No | slight growth or elongation of the single cell with later fading and in many colonies complete lysis | Yes | Yes | Yes | Yes | same morphology and growth rate as the growth control condition

Source: patent publication US20150337351A1, “METHODS OF MICROORGANISM IMMOBILIZATION” (priority 2014, published 2015)
